{
  "source": "patent US20230301298A1",
  "about": "“Biocide Compositions” (BASF SE, priority 2020, published 2023)",
  "key": {"[1]": {"experiment": "Solubility of biocide in two-component solvent system (A1:A2)", "type": "physicochemical", "method": "Component (A1) and component (A2) were mixed and heated to a temperature in the range of 20° C. to 100° C. to obtain a solution. Respective amount of the biocide was charged to the above solution at a temperature in the range of 20° C. to 100° C. to obtain the solution containing biocide. Emulsifier and other optional ingredients were charged o to the above biocide containing solution to obtain the emulsifiable composition (C)."}, "[2]": {"experiment": "Solubility of azoxystrobin in three components solvent system", "type": "physicochemical", "method": "Component (A1) and component (A2) were mixed and heated to a temperature in the range of 20° C. to 100° C. to obtain a solution. Respective amount of the biocide was charged to the above solution at a temperature in the range of 20° C. to 100° C. to obtain the solution containing biocide. Emulsifier and other optional ingredients were charged o to the above biocide containing solution to obtain the emulsifiable composition (C). It is evident from table 1 to 5 that the biocides can be solubilised in a combination of at least one component (A1) and at least one component (A2) and which can be further formulated to stable emulsion concentrate. It can be inferred from table 4 that the tebuconazole can be formulated to an emulsifiable concentrate compared to suspension concentrate or emulsion concentrate in aromatic solvent system. Further, table 5 discloses that a three components solvent system also aids in solubilizing the biocides or adding water to two-components solvent system can improve the solubility of the biocide(s)."}, "[3]": {"conditions": "solvent system 2-phenylethanol : Formic acid, molar ratio 1:2"}, "[4]": {"conditions": "solvent system 2-phenylethanol : Formic acid, molar ratio 2:1"}, "[5]": {"conditions": "solvent system 2-phenylethanol : Methyl salicylate, molar ratio 1:1"}, "[6]": {"conditions": "solvent system 2-phenylethanol : Methyl salicylate, molar ratio 2:1"}, "[7]": {"conditions": "solvent system 4-methylcyclohexanol : Methyl salicylate, molar ratio 1:2"}, "[8]": {"conditions": "solvent system Cyclohexanol : D,L-Lactic acid, molar ratio 1:1"}, "[9]": {"conditions": "solvent system Thymol : Phenyl acetic acid, molar ratio 2:1"}, "[10]": {"conditions": "solvent system formic acid : Methyl salicylate, molar ratio 2:1"}},
  "note": "Several values for one entry are separate records, joined by “and”; a condition that tells them apart may be missing. Equal entries are not always repeated.",
  "data": [
    {"smiles": "CC(C)(C)C(O)(CCc1ccc(Cl)cc1)Cn1cncn1", "note": "(stereo not shown) [Tebuconazole]", "values": [
      {"measurement": "Solubility wt. % in total (C)", "setting": "[1]; solvent system 2-phenylethanol : Formic acid, molar ratio 1:1", "value": 40, "unit": "wt. %"},
      {"measurement": "Solubility wt. % in total (C)", "setting": "[1]; [3]", "value": 40, "unit": "wt. %"},
      {"measurement": "Solubility wt. % in total (C)", "setting": "[1]; [4]", "value": 35, "unit": "wt. %"},
      {"measurement": "Solubility wt. % in total (C)", "setting": "[1]; [5]", "value": 38, "unit": "wt. %"},
      {"measurement": "Solubility wt. % in total (C)", "setting": "[1]; [6]", "value": 42, "unit": "wt. %"},
      {"measurement": "Solubility wt. % in total (C)", "setting": "[1]; [7]", "value": 35, "unit": "wt. %"},
      {"measurement": "Solubility wt. % in total (C)", "setting": "[1]; [8]", "value": 47, "unit": "wt. %"},
      {"measurement": "Solubility wt. % in total (C)", "setting": "[1]; solvent system Cyclohexanol : Methyl salicylate, molar ratio 1:2", "value": 38, "unit": "wt. %"},
      {"measurement": "Solubility wt. % in total (C)", "setting": "[1]; [9]", "value": 36, "unit": "wt. %"},
      {"measurement": "Solubility wt. % in total (C)", "setting": "[1]; [10]", "value": 50, "unit": "wt. %"}
    ]},
    {"smiles": "CS(=O)(=O)c1ccc(C(=O)C2C(=O)CCCC2=O)c([N+](=O)[O-])c1", "note": "[Mesotrione]", "values": [
      {"measurement": "Solubility wt. % in total (C)", "setting": "[1]; [9]", "value": 20, "unit": "wt. %"}
    ]},
    {"smiles": "CO/C=C(/C(=O)OC)c1ccccc1Oc1cc(Oc2ccccc2C#N)ncn1", "note": "[Azoxystrobin]", "values": [
      {"measurement": "Solubility wt. % in total (C)", "setting": "[1]; solvent system 2-phenoxyethanol : D,L-Lactic acid, molar ratio 1:1", "value": 36, "unit": "wt. %"},
      {"measurement": "Solubility wt. % in total (C)", "setting": "[1]; solvent system 2-phenoxyethanol : D,L-lactic acid, molar ratio 1:2", "value": 20, "unit": "wt. %"},
      {"measurement": "Solubility wt. % in total (C)", "setting": "[1]; solvent system 2-phenoxyethanol : Methyl salicylate, molar ratio 1:1", "value": 19, "unit": "wt. %"},
      {"measurement": "Solubility wt. % in total (C)", "setting": "[1]; solvent system 2-phenoxyethanol : Veratrole, molar ratio 2:1", "value": 23, "unit": "wt. %"},
      {"measurement": "Solubility wt. % in total (C)", "setting": "[1]; solvent system 2-phenylethanol : D,L-Lactic acid, molar ratio 1:1", "value": 25, "unit": "wt. %"},
      {"measurement": "Solubility wt. % in total (C)", "setting": "[1]; solvent system 2-phenylethanol : D,L-Lactic acid, molar ratio 2:1", "value": 22, "unit": "wt. %"},
      {"measurement": "Solubility wt. % in total (C)", "setting": "[1]; [3]", "value": 20, "unit": "wt. %"},
      {"measurement": "Solubility wt. % in total (C)", "setting": "[1]; [4]", "value": 20, "unit": "wt. %"},
      {"measurement": "Solubility wt. % in total (C)", "setting": "[1]; [5]", "value": 27, "unit": "wt. %"},
      {"measurement": "Solubility wt. % in total (C)", "setting": "[1]; solvent system 2-phenylethanol : Methyl salicylate, molar ratio 1:2", "value": "25 wt. % and 24 wt. %"},
      {"measurement": "Solubility wt. % in total (C)", "setting": "[1]; [6]", "value": "27 wt. % and 23 wt. %"},
      {"measurement": "Solubility wt. % in total (C)", "setting": "[1]; solvent system 2-phenylethanol : Phenyl acetic acid, molar ratio 2:1", "value": 25, "unit": "wt. %"},
      {"measurement": "Solubility wt. % in total (C)", "setting": "[1]; solvent system 4-isopropylbenzylalcohol : Phenyl acetic acid, molar ratio 2:1", "value": 24, "unit": "wt. %"},
      {"measurement": "Solubility wt. % in total (C)", "setting": "[1]; solvent system 4-methylcyclohexanol : Hydroxy pivalic acid, molar ratio 2:1", "value": 24, "unit": "wt. %"},
      {"measurement": "Solubility wt. % in total (C)", "setting": "[1]; [7]", "value": 20, "unit": "wt. %"},
      {"measurement": "Solubility wt. % in total (C)", "setting": "[1]; solvent system Carvacrol : 2-ethylphenol, molar ratio 1:2", "value": "<49", "unit": "wt. %"},
      {"measurement": "Solubility wt. % in total (C)", "setting": "[1]; [8]", "value": 20, "unit": "wt. %"},
      {"measurement": "Solubility wt. % in total (C)", "setting": "[1]; solvent system Cyclohexanol : D,L-Lactic acid, molar ratio 1:2", "value": 20, "unit": "wt. %"},
      {"measurement": "Solubility wt. % in total (C)", "setting": "[1]; solvent system Cyclohexanol : Hydroxy pivalic acid, molar ratio 2:1", "value": 21, "unit": "wt. %"},
      {"measurement": "Solubility wt. % in total (C)", "setting": "[1]; solvent system D,L-Lactic acid : 1,2-dimethoxy benzene, molar ratio 2:1", "value": 32, "unit": "wt. %"},
      {"measurement": "Solubility wt. % in total (C)", "setting": "[1]; solvent system D,L-Lactic acid : 2-phenoxyethanol, molar ratio 1:1", "value": 23, "unit": "wt. %"},
      {"measurement": "Solubility wt. % in total (C)", "setting": "[1]; solvent system D,L-Lactic acid : 4-acetylanisole, molar ratio 2:1", "value": 22, "unit": "wt. %"},
      {"measurement": "Solubility wt. % in total (C)", "setting": "[1]; solvent system D,L-Lactic acid : 4-isopropylbenzyl alcohol, molar ratio 2:1", "value": 33, "unit": "wt. %"},
      {"measurement": "Solubility wt. % in total (C)", "setting": "[1]; solvent system D,L-Lactic acid : Veratrole, molar ratio 2:1", "value": 24, "unit": "wt. %"},
      {"measurement": "Solubility wt. % in total (C)", "setting": "[1]; solvent system Formic acid : 1,2-dimethoxy benzene, molar ratio 2:1", "value": 49, "unit": "wt. %"},
      {"measurement": "Solubility wt. % in total (C)", "setting": "[1]; solvent system Thymol : (L)-menthol, molar ratio 1:1", "value": 28, "unit": "wt. %"},
      {"measurement": "Solubility wt. % in total (C)", "setting": "[1]; [9]", "value": 60, "unit": "wt. %"},
      {"measurement": "Solubility wt. % in total (C)", "setting": "[1]; solvent system formic acid : Methyl salicylate, molar ratio 1:2", "value": 27, "unit": "wt. %"},
      {"measurement": "Solubility wt. % in total (C)", "setting": "[1]; [10]", "value": 40, "unit": "wt. %"},
      {"measurement": "Solubility of Azoxystrobin wt. % in total (C)", "setting": "[2]; 2-Phenoxyethanol:Methyl Salicylate:Water (tap), molar ratio 1:1:0.5", "value": 24, "unit": "wt. %"},
      {"measurement": "Solubility of Azoxystrobin wt. % in total (C)", "setting": "[2]; 2-Phenoxyethanol:Methyl salicylate:D,L-Lactic acid, molar ratio 1:1:2", "value": 29, "unit": "wt. %"},
      {"measurement": "Solubility of Azoxystrobin wt. % in total (C)", "setting": "[2]; 2-Phenoxyethanol:Veratrole:D,L-Lactic acid, molar ratio 1:1:2", "value": 21, "unit": "wt. %"},
      {"measurement": "Solubility of Azoxystrobin wt. % in total (C)", "setting": "[2]; 2-Phenoxyethanol:Veratrole:Water (tap), molar ratio 1:2:0.5", "value": 25, "unit": "wt. %"},
      {"measurement": "Solubility of Azoxystrobin wt. % in total (C)", "setting": "[2]; 2-Phenylethanol:Methyl Salicylate:Water (tap), molar ratio 1:1:0.5", "value": 25, "unit": "wt. %"},
      {"measurement": "Solubility of Azoxystrobin wt. % in total (C)", "setting": "[2]; 2-Phenylethanol:phenyl acetic acid:Water (tap), molar ratio 2:1:0.5", "value": 25, "unit": "wt. %"}
    ]}
  ]
}
